Experiments:
Akt (Ser473) = assay: Western blot of Akt phosphorylation in H1703 cells; format: cell-based, human; settings: for phosphorylation of Akt at Ser473: treated for 1 hr, western blot (FIG. 5B)
Method: (§1) We dissolved drugs (Iressa and Gleevec) in DMSO to yield 10 mM stock solution and stored at −20° C.

A549 cells = settings: previous report (Zhang et al. 2003); cited from earlier work
H1703 cells = assay: Cell growth inhibition assay (MTT/MTS), H1703; format: cell-based, human; settings: 72 hr (FIG. 5C)
Method: Briefly, we seeded 1000 to 5000 cells onto flat-bottomed 96-well plates and grew them in complete medium with 10% FBS. After 24 hours, we changed the cell medium to 100 μl complete growth medium with 10% FBS containing various concentrations of Gleevec, and incubated the cells for an additional 72 hours. We applied each drug concentration to triplicate well of cells. At the end of the incubation, we added 20 μl of CellTiter 96 AQUESOUS One solution to each well, and incubated the plate for 1-4 hours. We read absorbance at 490 nm using a Titan Multiskan Ascent microplate reader (Titertek Instrument). We expressed growth inhibition as mean±SD value of percentage of absorbance reading from treated cells vs untreated cells. We repeated the assay at least three times. We calculated IC50 with the use of OriginPro 6.1 software (OriginLab, Northampton, Mass.).

PLCγ1 = assay: Western analysis with site and phosphorylation-specific antibodies, PLCγ1; format: cell-based, human; settings: H1703 cells, 1 μM for 3 hours, western (FIG. 9E)
Method: as §1

SHP2 = assay: Western analysis with site and phosphorylation-specific antibodies, SHP2; format: cell-based, human; settings: H1703 cells, 1 μM for 3 hours, western (FIG. 9E)
Method: as §1

p44/42MAPK = assay: Western blot of p44/42MAPK phosphorylation in H1703 cells; format: cell-based, human; settings: 100 nM Imatinib, 1 hour (FIG. 9B)
Method: as §1

PDGFRα = target: T1, PDGFRα (Homo sapiens, UniProt P16234); assay: Western blot of PDGFRα phosphorylation in H1703 cells; format: cell-based
T1 construct: PDGFRα expression is highly restricted to H1703 cell line; endogenous in cells; host or cells: H1703 human NSCLC cell line (ATCC)
T1 sequence (P16234 24-1089): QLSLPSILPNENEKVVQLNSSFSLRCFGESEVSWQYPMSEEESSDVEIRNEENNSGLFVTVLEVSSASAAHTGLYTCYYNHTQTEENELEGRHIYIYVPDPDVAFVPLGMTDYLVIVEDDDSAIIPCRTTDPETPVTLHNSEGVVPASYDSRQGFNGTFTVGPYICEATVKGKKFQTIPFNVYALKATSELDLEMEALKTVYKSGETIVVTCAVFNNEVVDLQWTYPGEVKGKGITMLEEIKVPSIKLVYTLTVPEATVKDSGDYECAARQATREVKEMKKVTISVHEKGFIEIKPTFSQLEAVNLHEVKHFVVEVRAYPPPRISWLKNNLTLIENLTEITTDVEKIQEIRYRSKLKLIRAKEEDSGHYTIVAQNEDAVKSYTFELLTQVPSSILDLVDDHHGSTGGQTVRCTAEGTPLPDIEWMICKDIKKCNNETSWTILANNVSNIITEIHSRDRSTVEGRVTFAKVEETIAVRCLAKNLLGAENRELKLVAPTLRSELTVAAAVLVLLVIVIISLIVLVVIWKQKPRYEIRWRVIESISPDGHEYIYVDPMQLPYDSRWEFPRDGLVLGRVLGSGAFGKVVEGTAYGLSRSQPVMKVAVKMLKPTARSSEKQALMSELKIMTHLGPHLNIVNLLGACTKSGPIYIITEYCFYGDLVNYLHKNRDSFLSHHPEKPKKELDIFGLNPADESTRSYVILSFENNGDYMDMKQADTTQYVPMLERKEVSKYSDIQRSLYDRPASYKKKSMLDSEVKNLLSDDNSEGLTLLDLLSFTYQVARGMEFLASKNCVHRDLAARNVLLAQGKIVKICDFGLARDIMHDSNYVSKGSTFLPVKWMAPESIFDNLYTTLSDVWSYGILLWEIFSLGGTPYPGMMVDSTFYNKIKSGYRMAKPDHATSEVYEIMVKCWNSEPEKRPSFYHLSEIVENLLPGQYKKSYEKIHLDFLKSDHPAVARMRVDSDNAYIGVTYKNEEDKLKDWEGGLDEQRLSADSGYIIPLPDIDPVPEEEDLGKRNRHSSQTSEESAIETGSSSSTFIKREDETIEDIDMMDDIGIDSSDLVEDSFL
Method: as §1

Stat3 = assay: Western analysis with site and phosphorylation-specific antibodies, Stat3; format: cell-based, human; settings: H1703 cells, 1 μM for 3 hours, western (FIG. 9E)
Method: as §1

H1703 xenograft = assay: H1703 mouse xenograft; format: in vivo, NCR nude mice
Method: We purchased four to six weeks female NCR nude mice from Taconic ande used them to generate H1703 xenograft. We carried out experiments under an IACUC approved protocol. We followed institutional guidelines for the proper and humane use of animals in research. We generated tumors by injecting 10 mice with 5×10^6H1703 cells and reconstituted basement membrane Matrigel (BD Biosciences) with 1:1 ratio in PBS. Drug treatment started when the tumor was about 1 mm×1 mm size. 5 mice were treated with Gleevec at 50 mg/kg/day by oral gavage using a ball ended feeding needle. 5 mice were untreated. […] We measured the average tumor diameter using caliper in both control and treated groups of mice.

[1] = system: phosphotyrosine signaling in H1703 cells; assay: SILAC LC-MS/MS phosphotyrosine analysis of H1703 cells; format: cell-based, human; settings: 1 μM Gleevec for 3 hours
Excerpt: We performed phosphopeptide immunoprecipitation from different cell lines as described previously (Rush, J., Moritz, A., Lee, K. A., Guo, A., Goss, V. L., Spek, E. J., Zhang, H., Zha, X. M., Polakiewicz, R. D., and Comb, M. J. (2005). Immunoaffinity profiling of tyrosine phosphorylation in cancer cells. Nat. Biotechnol. 23, 94-101) using the PhosphoScan Kit (P-Tyr-100) from CST.
We split equal number of H1703 cells and grew them in either light or heavy SILAC medium (RPMI medium lacking arginine and lysine supplemented with either regular L-Lysine:HCl and L-Arginine:HCL (Sigma) for light medium, or supplemented with L-arginine:HCl (U-13 C6,98%) and L-lysine:2HCl (U-13C6,98%; U-15N2,98%) (Cambridge Isotope Laboratories) for heavy medium. The medium also contained 10% FBS, and penicillin/streptomycin. We grew cells for at least five generations to reach 100 million cells in each medium type. We then treated cells grown in the heavy medium with 1 μM Gleevec for 3 hours. We lysed both treated and control cells in Urea lysis buffer and combined them for phosphopeptide immunoprecipitation experiment as described above.
We LC-MS analyzed each phosphopeptide sample in duplicate. We packed a fused silica microcapillary column (125 μm×18 cm) with C18 reverse-phase resin (Magic C18AQ, 5 μm particles, 200 Å pore size, Michrom Bioresources, Auburn, Calif.). We loaded samples (4 μL) onto this column with an autosampler (LC Packings Famos, San Francisco, Calif.) and eluted them into the mass spectrometer by a 55-min linear gradient of 7 to 30% acetonitrile in 0.1% formic acid. We delivered the gradient at approximately 600 nl/min using a binary HPLC pump (Agilent 1100, Palo Alto, Calif.) with an in-line flow splitter. We mass analyzed eluting peptide ions with a hybrid linear ion trap-7 Tesla ion cyclotron resonance Fourier transform instrument (LTQ-FT, Thermo Electron, San Jose, Calif.). We employed a top-seven method, whereby we collected 7 data-dependent MS/MS scans in the linear ion trap based on measurements made during the previous MS survey scan in the ICR cell, with the linear ion trap and the Fourier transform instrument operating concurrently. We performed MS scans at 375-1800 m/z with an automatic gain control (AGC) target of 3×10^6 and a mass resolution of 10^5. For MS/MS the AGC was 4000, the dynamic exclusion time was 25 s, and singly-charged ions were rejected by charge-state screening.
We assigned peptide sequences to MS/MS spectra using Sequest software (v.27, rev.12) and a composite forward/reverse IPI human protein database. Search parameters were: trypsin as protease; 1.08 Da precursor mass tolerance; static modification on cysteine (+57.02146, carboxamidomethylation); and dynamic modifications on serine, threonine and tyrosine (+79.96633 Da, phosphorylation), lysine (+8.01420, ^13C6 ^15N2), arginine (+6.02013, ^13C6) and methionine (+15.99491, oxidation). We used a target/decoy database approach to establish appropriate score-filtering criteria such that the estimated false-positive assignment rate was <1%. In addition to exceeding charge-dependent XCorr thresholds (for z=2, XCorr≧2.2; for z=3, XCorr≧3.3; for z=4, XCorr≧3.5), we required assignments to contain phosphotyrosine, to have a mass accuracy of −5 to +25 ppm, and to contain either all-light or all-heavy lysine/arginine residues. We further evaluated assignments passing these criteria using a custom quantification program Vista (Bakalarski, C. E., Elias, J. E., Villen, J. Haas, W., Gerber, S. A., Everley, P. A., and Gygi, S. P. (2008) The Impact of Peptide Abundance and Dynamic Range on Stable-Isotope-Based Quantitative Proteomic Analyses. J. Proteome Res. 10.1021/pr800333e) to calculate peak areas and ultimately a relative abundance between heavy and light forms of each peptide.

[2] = 100 nM Imatinib, 1 hour (FIG. 9B)
[3] = indicated amounts of Imatinib mesylate, 1 hour (FIG. 9B)

Question: With `COc1cc2ncnc(Nc3ccc(F)c(Cl)c3)c2cc1OCCCN1CCOCC1` [Gefitinib] as the compound, how does the “phosphorylation of Akt at Ser473” value (Akt (Ser473)) read?
Answer: not by Gefitinib

Question: With `Cc1ccc(NC(=O)c2ccc(CN3CCN(C)CC3)cc2)cc1Nc1nccc(-c2cccnc2)n1` [Imatinib] as the compound, how does the “sensitivity to Imatinib” value (A549 cells) read?
Answer: showed sensitivity

Question: What about the “cell growth / sensitivity to Imatinib” value (H1703 cells) of the same compound?
Answer: sensitivity profile similar to K562 cells

Question: And the “cell growth / sensitivity to Imatinib” value (H1703 cells; listed as Imatinib mesylate)?
Answer: inhibits cell growth

Question: What about the “phosphorylation of PLCγ1” value (PLCγ1) of the same compound?
Answer: decreased phosphorylation

Question: And the “phosphorylation of SHP2” value (SHP2)?
Answer: decreased phosphorylation

Question: What about the p44/42MAPK phosphorylation (p44/42MAPK) of the same compound?
Answer: little if any effect

Question: What about the PDGFRα phosphorylation (PDGFRα; [2]) of the same compound?
Answer: almost complete inhibition

Question: What about the “phosphorylation of PDGFRα” value (PDGFRα; 1 μM for 3 hours, western (FIG. 9E)) of the same compound?
Answer: decreased phosphorylation

Question: And the “PDGFR α phosphorylation (Tyr754)” value (PDGFRα; [3])?
Answer: dose-dependent inhibition

Question: What about the Akt phosphorylation (Akt (Ser473); [2]) of the same compound?
Answer: almost complete inhibition

Question: What about the “Akt phosphorylation (Ser473)” value (Akt (Ser473); [3]) of the same compound?
Answer: dose-dependent inhibition

Question: And the “phosphorylation of Akt at Ser473” value (Akt (Ser473))?
Answer: blocked

Question: What about the “phosphorylation of Stat3” value (Stat3) of the same compound?
Answer: not changed

Question: And the tumor growth (H1703 xenograft; H1703 xenograft in nude mice, 50 mg/kg daily, 2 week period, vs vehicle)?
Answer: immediate and profound effects on tumor growth

Question: What about the tumor growth (H1703 xenograft; H1703 xenograft, after 7 days of Imatinib treatment at 50 mg/kg (FIG. 9F)) of the same compound?
Answer: blocks tumor growth

Question: And the “phosphorylation of SMS2” value [1]?
Answer: inhibited phosphorylation

Question: What about the “phosphorylation of the ras effector Rinl” value [1] of the same compound?
Answer: inhibited phosphorylation

Question: What about the “tyrosine phosphorylation of SHP-2” value [1] of the same compound?
Answer: suppressed tyrosine phosphorylation

Question: And the “tyrosine phosphorylation of Stat5” value [1]?
Answer: suppressed tyrosine phosphorylation

Question: And the “tyrosine phosphorylation of phospholipase Cg 1” value [1]?
Answer: suppressed tyrosine phosphorylation

Question: What about the “tyrosine phosphorylation of proteins regulating the cytoskeleton and actin reorganization and signaling molecules involved in membrane recycling and endocytosis” value [1] of the same compound?
Answer: suppressed

Question: And the “tyrosine phosphorylation of the regulatory subunit of PI3K” value [1]?
Answer: suppressed tyrosine phosphorylation

— patent publication US20100216718A1, “Cancer Classification and Methods of Use” (priority 2007, published 2010)
